Experimental data from patent US7968097B2, “Identification of Hla-A2-presented T-cell epitopes derived from the oncofoetal antigen-immature laminin receptor protein and uses thereof” (Immatics Biotechnologies GmbH, priority 2005, dated 2011).

Key:
[1] = system: peptide-pulsed T2 cells; assay: Lysis of peptide-pulsed T2 target cells by peptide-specific CTL (peptide titration); type: cell-based, human
[2] = system: peptide-pulsed 51Cr-labelled T2 cells; assay: Cold target inhibition assay; type: cell-based, human
Text: CTL derived from healthy HLA-A*0201^+ individuals were generated using a protocol described elsewhere (Zeis M, Siegel S, Schmitz M et al. Induction of cytotoxic T lymphocytes against hematologic neoplasms by survivin RNA-transfected dendritic cells. J Immunol. 2003; 170, 5391-5397.). For the induction of autologous OFA/ILR, peptide-specific CTL obtained from patients with AML and CLL, CD8^+ T cells were separated from PBMC using immunomagnetic beads (MACS®, Miltenyi, Bergisch-Gladbach, Germany), cultured with autologous OFA/iLR peptide-pulsed fully matured DC and restimulated with autologous peptide-pulsed PBMC in the presence of IL-2 (1 ng/ml, CellConcepts, Weisskirch, Germany). After at least four weekly restimulations, CTL reactivity was determined in a conventional 4 h ^51Chromium release assay. Cold target inhibition assays and antibody blocking experiments were performed as previously described (Zeis M, Siegel S, Schmitz M et al. Induction of cytotoxic T lymphocytes against hematologic neoplasms by survivin RNA-transfected dendritic cells. J Immunol. 2003; 170, 5391-5397.).
A cold target inhibition assay was performed. To examine whether ILR1-specific T cells lyse ILR1 peptide-pulsed T2 cells specifically and in the context of HLA-A*02, cold target inhibition assays were performed as follows: ^51Cr-labelled T2 cells were loaded with peptide in a concentration of 10 microgram peptide/10^6 T2 cells/ml. A total of 2×10^5 unlabelled, T2 cells, which had equally been loaded with the same or a control peptide, were then added in a volume of 50 microliter AIMV to 10^4 peptide-pulsed, ^51Cr-labelled T2 cells. Effector T cells specific for ILR1 were added and a ^51Cr-release assay was performed as described above.
A cold target inhibition assay was performed as described under “T2+ILR1” above.

ILKEPVHGV [HIV peptide, reference compound]
recognition/lysis of T2 cells pulsed with the peptide [1]: not recognized

LYLKNYRIA (listed as Homo sapiens) [Survivin, reference compound]
competition of cold targets loaded with the peptide for lysis ([2]; hot target ILR1-peptide-pulsed T2, effectors ILR1-specific CTL, 10 microgram peptide/10^6 T2 cells/ml): neither peptides irrelevant for ILR1-specific CTL (Survivin and ILR2), nor unloaded T2 cells, which display empty HLA-A*02 molecules on their cell surfaces, compete for lysis
competition of cold targets loaded with the peptide for lysis ([2]; hot target ILR2-peptide-pulsed T2, effectors ILR2-specific CTL): neither peptides irrelevant for ILR2-specific CTL (Survivin and ILR1), nor unloaded T2 cells, which display empty HLA-A*02 molecules on their cell surfaces, compete for lysis
